The record followed here is patent US20030073731A1, “Compositions and methods of the use thereof achiral analogues of CC-1065 and the duocarmycins” (priority 2000, published 2003).

The test system of test [1] is NCI-H522.
For test [2], the system named is HCT-116.
The test system of test [3] is SK-MEL-5.
Test [4] deals with PC-3.
The subject of the next test is MOLT-4. Briefly: cells. Particulars: Homo sapiens.
In a further test the test system is NCI-H23. Put plainly: cells. Particulars: Homo sapiens.
In test [5] the test system is NCI-H522. Put plainly: cells. The settings on record: Homo sapiens.
For test [6], the system named is HCT-116. Briefly: cells. The settings on record: Homo sapiens.
The next test deals with KM12. Briefly: cells. The settings on record: Homo sapiens.
Another test relates to SF-539. Put plainly: cells. The settings on record: Homo sapiens.
Test [7] has as its system SK-MEL-5. Put plainly: cells. The settings on record: Homo sapiens.
For another test, the system named is UACC-62. Briefly: cells. The settings on record: Homo sapiens.
The subject of the next test is OVCAR-8. Briefly: cells. Particulars: Homo sapiens.
The next test relates to ACHN. Put plainly: cells. Particulars: Homo sapiens.
In test [8] the test system is PC-3. Put plainly: cells. The settings on record: Homo sapiens.

Read-outs that look alike come from different tables or passages of the source.

Regarding “4-(2-Chloroethyl)-3-[5-(5-benzofuran-2-carboxamido)indole-2-carboxamido]phenol [Compound 1]”, the GI50 in the test with NCI-H522 [1] was 933 nM; in the test on HCT-116 [2], 1940 nM; in the test with SNB-19, 3.53 µM; in the test on SK-MEL-5 [3] it was 1730 nM; in the test on PC-3 [4], 969 nM; in the test with MDA-MB-231/ATCC, 2430 nM. The TGI was found to be 3.00E-06 Molar with NCI-H522 [1]; 5.73E-06 Molar in the test with HCT-116 [2]; 1.38E-05 Molar with SNB-19; 3.34E-06 Molar in the test on SK-MEL-5 [3]; 3.99E-06 Molar in the test on PC-3 [4]; 7.10E-06 Molar in the test on MDA-MB-231/ATCC. Further, the “Percent Growth” value was −65% with MDA-MB-231/ATCC (Log10 Concentration (Molar) −4.0), 92% in the test on MDA-MB-231/ATCC (Log10 Concentration (Molar) −6.0), 97% with MDA-MB-231/ATCC (Log10 Concentration (Molar) −7.0) and 94% in the test on MDA-MB-231/ATCC (Log10 Concentration (Molar) −8.0).
Consider `COC(=O)c1[nH]c2c(O)cc(NC(=O)c3cc4cc(OC)c(OC)c(OC)c4[nH]3)c(CCCl)c2c1C(=O)OC` [Compound 22, Dimethyl 4-(2-chloroethyl)-7-hydroxy-5-(5,6,7-trimethoxyindole-2-carboxamido)indole-2,3-dicarboxylate], for which the GI50 was 10.5 nM in the test on MOLT-4 (MOLT-4); 67.5 nM with NCI-H23 (NCI-H23); 57.7 nM in the test with NCI-H522 [5] (NCI-H522); 65.6 nM in the test with HCT-116 [6] (HCT-116); 87.4 nM with KM12 (KM12); 80.4 nM in the test on SF-539 (SF-539). For the same compound, the GI50 was found to be 32.3 nM in the test with SK-MEL-5 [7] (SK-MEL-5); 78.2 nM in the test with UACC-62 (UACC-62); 70.9 nM in the test with OVCAR-8 (OVCAR-8); 44.6 nM in the test with ACHN; 61.7 nM with PC-3 [8] (PC-3). Moreover, the CC50 in the test with MOLT-4 (MOLT-4, read-out: LC50) is more than 50 µM; with NCI-H23 (NCI-H23, read-out: LC50), more than 50 µM; in the test on NCI-H522 [5] (NCI-H522, read-out: LC50), 373 nM; in the test on HCT-116 [6] (HCT-116, read-out: LC50), 33.2 µM; in the test with KM12 (KM12, read-out: LC50), 474 nM; with SF-539 (SF-539, read-out: LC50) it was 608 nM. In addition, the CC50 in the test with SK-MEL-5 [7] (SK-MEL-5, read-out: LC50) was more than 50 µM; with UACC-62 (UACC-62, read-out: LC50), 436 nM; in the test with OVCAR-8 (OVCAR-8, read-out: LC50), 1760 nM; in the test on ACHN (read-out: LC50), more than 50 µM; with PC-3 [8] (PC-3, read-out: LC50), 10.5 µM.
